Results as given in US10047041B2, “Amino-phenyl-sulfonyl-acetate derivatives and use thereof” (CJ Healthcare Corporation, priority 2014, dated 2018).

Test system: ICR mice
Assay: Oral glucose tolerance test (OGTT) in ICR mice
Type: in vivo
Details: normal fasted ICR mice; oral 50, 20, 5 and 1 mg/kg in 0.5% methylcellulose; glucose 2 g/kg; student's t-test p<0.05
Method: In order to evaluate the ability to control blood glucose in the body for the compound according to the present invention, an oral glucose tolerance test was conducted using ICR mice. The day before the test, normal ICR mice were separated into four per group, and were fasted for at least 16 hours. The body weight of each mouse was measured and recorded in the morning on the day of the test; The compound was prepared in a concentration of 5 mg/mL in 0.5% methylcellulose such that it could be administered at a dose of 50 mg/kg, and was then further diluted to be in concentrations of […] and administered at the same volume such that it can be administered at doses of 20 mg/kg, 5 mg/kg, and 1 mg/kg. Glucose was dissolved in drinking water and prepared in a concentration of 200 mg/mL such that it could be administered at a dose of 2 g/kg. Before administering the compounds, a small amount of blood of the mice was drawn from the caudal vein, and blood glucose was measured using ACCU-CHEK Active (Art. No. 2248891001), a blood glucose meter, and recorded. A solvent (0.5% MC) as a vehicle and the compounds prepared above were administered to all mice at a dose of 10 mL per 1 kg of body weight using a sonde. Glucose was further administered, and the blood glucose was measured in each mouse after 0.5 hours, 1 hour, and 2 hours. […]

Cc1ccccc1-c1cccc(CNc2ccc(S(=O)(=O)CC(=O)O)cc2)c1 [Example 1, 2-(4-((2′-methyl-biphenyl-3-yl)methylamino)phenylsulfonyl)acetic acid] was tested. Which “effect of lowering blood glucose (glucose AUC0-2 hr after glucose administration)” value did it give?
Its value is “significant effect of lowering blood glucose”.
